{"source": "patent US20250170101A1", "about": "“MONOACYLGLYCEROL LIPASE INHIBITORS AND USE THEREOF FOR THE TREATMENT AND MANAGEMENT OF PAIN AND RELATED CONDITIONS” (Psy Therapeutics, Inc., priority 2021, published 2025)", "key": {"MAGL enzyme": {"biological_target": "T1, MAGL enzyme (Homo sapiens, UniProt Q99685)", "T1 sequence (Q99685 1-303)": "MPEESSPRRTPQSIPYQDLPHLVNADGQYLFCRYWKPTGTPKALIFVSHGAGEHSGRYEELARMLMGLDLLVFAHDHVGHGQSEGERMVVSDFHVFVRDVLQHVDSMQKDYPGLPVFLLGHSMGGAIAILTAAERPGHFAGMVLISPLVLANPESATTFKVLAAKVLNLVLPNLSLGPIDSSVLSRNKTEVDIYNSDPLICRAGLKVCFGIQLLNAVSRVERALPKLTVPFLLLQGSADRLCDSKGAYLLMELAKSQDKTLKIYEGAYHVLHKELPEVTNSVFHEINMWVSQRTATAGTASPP", "test": "MAGL reversible inhibition assay (washout), Example 22", "format": "biochemical", "parameters": "% MAGL activity returning after washout: concentration or dose not given beside the values"}, "[1]": {"test": "Plasma and brain concentrations after single intraperitoneal administration, Examples 23 and 24", "format": "in vivo, male C57BL/6 mice", "settings": "male, C57BL/6, mouse, IP 20 mg/kg", "protocol": "This experiment was performed to determine plasma pharmacokinetics and estimate 2-AG levels in male C57BL/6 mice brain following a single intraperitoneal administration of Compound-74 (Dose: 5, 15, 50 and 150 mg/kg). The experiment was repeated at 150 mg/kg on 3 separate test dates to obtain the data shown in FIG. 1A (plasma and brain concentration of Compound 74 30 minutes after IP injection), and on the first and third test dates to obtain the data shown in FIG. 1B (brain concentration of 2-AG30 minutes after IP injection of Compound 74). • Compound 74, Molecular Wt.: 405.46 (Freebase), % Purity: Considered 100%. • Formulation: DMSO • Dose: 5, 15, 50 and 150 mg/kg • Dose volume: 2 mL/kg • Feeding regimen: freely fed • Groups:\nStudy Design: A total of thirty male mice were used into the study and divided in to five groups with six mice in each group (n=6 mice/group/treatment design). Animals in Group 1 to Group 4 were administered intraperitoneally with Compound 74 solution formulation at 5, 15, 50 and 150 mg/kg dose, respectively. Animals in Group 5 were administered intraperitoneally with vehicle at 2 mL/kg dose. Blood and brain samples were collected at 0.5 h post dose. Mice were euthanized by cervical dislocation and brain samples were dissected rapidly and snap frozen in liquid nitrogen, weighed and homogenized in 2 mL of acetonitrile containing 2-AGd5. Blood samples were centrifuged at 4000 rpm for 10 minutes at 4° C. Plasma was harvested and separated in pre-labeled tubes. All samples were stored below −70° C. until bioanalysis.\nAnalysis: Brain samples were processed for 2-AG estimation. 2-AG levels were the detected values. Plasma concentrations were determined by fit for purpose LC-MS/MS method. LLOQ: 5.09 ng/mL (Plasma and brain)\nThis experiment was performed to determine plasma pharmacokinetics and estimate 2-AG levels in male C57BL/6 mice brain following a single intraperitoneal administration of Compound-473 (Dose: 20 mg/kg). • Compound 473, Molecular Wt.: 463.41 (Freebase), % Purity: >98%. • Formulation: DMSO • Dose: 20 mg/kg • Dose volume: 10 mL/kg • Feeding regimen: Food and water ad libitum • Groups:\nStudy Design: A total of twelve C57BL/6 male mice were used in this study. Six animals were administered intraperitoneally with solution formulation of PSY-05-00473-002 at 20 mg/kg dose. Six animals were administered vehicle (5% NMP, 5% Solutol HS15 and 90% Normal saline) intraperitoneally at 10 mL/kg dose volume. Blood samples (approximately 60 μL) were collected under light isoflurane anesthesia from a set of six mice at 0.5 h. Plasma was harvested by centrifugation of blood and stored at −70±10° C. until analysis. After blood collection, mice were euthanized by cervical dislocation and brain samples were dissected rapidly and snapped frozen in liquid nitrogen and stored at −80. To homogenize, removed brain samples from the freezer, were divided into two equal hemispheres and weighed while still in frozen condition, and begun homogenization/extraction procedure without allowing the brain samples to thaw. One part is used for PK estimation and the other part is used for 2-AG estimation.\nAnalysis: For PK estimation, brain samples were homogenized in 2 volumes of PBS of brain weight. Total homogenate volume was three times of the brain weight. For 2-AG estimation, the frozen brain samples were homogenized in 2 mL acetonitrile containing 2-AGd5 (8.88 nmoles) will be incubated overnight at −20° C. to precipitate proteins. Blood samples were centrifuged at 10000 rpm for 10 minutes at 4° C. All samples were stored below −70° C. until bioanalysis. Plasma and brain homogenate samples were quantified by fit-for-purpose LC-MS/MS method (LLOQ: 1.02 ng/mL for plasma and 2.03 ng/mL for brain)."}}, "note": "Where two headings read alike, the source gives them in different places.", "data": [{"smiles": "O=C(c1cc(O)ccc1F)N1CC2(CC(n3cc(C(F)(F)F)c(-c4ccccc4F)n3)C2)C1", "note": "(single isomer, unassigned) [Compound 473, (2-fluoro-5-hydroxyphenyl){6-[3-(o-fluorophenyl)-4-(trifluoromethyl)-1-pyrazolyl]-2-aza-2-spiro[3.3]heptyl}methanone]", "values": [{"measurement": "degree to which MAGL enzymatic activity returned following washout of test compounds", "setting": "MAGL enzyme; pre-washout compound concentration 1 μM", "value": 41}, {"measurement": "% MAGL activity returning after washout", "setting": "MAGL enzyme; relative to control (no inhibitor before washout), immediately following 30 minute washout", "value": "<50", "unit": "%"}, {"measurement": "concentration at 0.5 h", "setting": "[1]; brain, read-out: Brain Concentration (ng/g), Mean", "value": 2630, "unit": "ng/g"}, {"measurement": "Kp at 0.5 h", "setting": "[1]; brain/plasma, read-out: Brain/Plasma Ratio (kp), Mean", "value": 1.44}, {"measurement": "concentration at 0.5 h", "setting": "[1]; plasma, read-out: Plasma Concentration (ng/mL), Mean", "value": 1820, "unit": "ng/mL"}]}]}
